Measured values from US20240270810A1, “PREPARATION AND APPLICATION OF POLYPEPTIDE” (GUANGDONG RAYNOVENT BIOTECH CO., LTD., priority 2021, published 2024).

Assays:
GLP-1R [1] = target: T1, GLP-1R (Homo sapiens, UniProt P43220); assay: In vitro GLP-1R agonistic activity test (cAMP kit); type: cell-based; settings: HEK293 host cells
T1 construct: host or cells: HEK293
Procedure: (§1) The cell lines were constructed by Wuxi […] (Shanghai) Co., Ltd. See details in Table 1 below. [table] [table] The test compounds were diluted at a 4-fold dilution factor in 10 points, starting from an initial concentration of 30 μM. The dilution was carried out by Bravo. • 1) 100 nL of compounds were transferred to an OptiPlate-384 plate by Echo. • 2) The OptiPlate-384 plate was centrifuged at 1000 rpm for 5 s. • 1) A GLP-1R/GIPR cell cryovial was placed in warm water at 37° C. for rapid thawing. • 2) The cell suspension was transferred into a 15 mL Transfer centrifugal tube and rinsed with 10 mL of HBSS gently. • 3) The centrifugal tube was centrifuged at 1000 rpm at room temperature for 1 min. • 4) The supernatant was discarded. • 5) The bottom cells were gently dispersed, then gently rinsed with 10 mL of HBSS, the centrifugal tube was centrifuged to settle the cells, and finally the cells were resuspended in an experimental buffer. • 6) Cell density and viability were measured by Vi-cell. • 7) The GLP-1R/GIPR cells were diluted with the experimental buffer to a concentration of 2.0*10^5/mL. • 8) […] of the diluted cell suspension was transferred into the OptiPlate-384 plate. • 9) Incubation was performed at room temperature for 30 min. • 1) 10 μL of 800 nM gradient diluted cAMP standard was added into the empty wells of the OptiPlate-384 plate. • 2) 10 μL of cAMP assay reagent was added. • 3) The OptiPlate-384 plate was covered with TopSeal-A film and incubated at room temperature for 60 min. The TopSeal-A film was removed, and readout was performed on En Vision.

GIPR [2] = target: T2, GIPR (Homo sapiens, UniProt P48546); assay: In vitro GIPR agonistic activity test (cAMP kit); type: cell-based; settings: CHO host cells
T2 construct: host or cells: CHO
T2 sequence (P48546 22-466): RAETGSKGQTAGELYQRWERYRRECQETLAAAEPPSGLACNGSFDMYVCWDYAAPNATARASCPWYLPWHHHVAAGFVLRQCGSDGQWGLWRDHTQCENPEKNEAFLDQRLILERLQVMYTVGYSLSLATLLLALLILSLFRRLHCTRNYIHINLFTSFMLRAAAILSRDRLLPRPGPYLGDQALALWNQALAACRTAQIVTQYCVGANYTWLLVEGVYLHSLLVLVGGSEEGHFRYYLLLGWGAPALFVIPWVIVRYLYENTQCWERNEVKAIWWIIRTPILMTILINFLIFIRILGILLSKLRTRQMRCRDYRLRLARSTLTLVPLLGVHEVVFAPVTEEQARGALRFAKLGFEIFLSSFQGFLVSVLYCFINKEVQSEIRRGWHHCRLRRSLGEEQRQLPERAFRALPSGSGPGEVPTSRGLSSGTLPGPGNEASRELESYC
Procedure: as §1, with “[table] [table]” left out

GIPR [3] = target: T3, GIPR (UniProt P48546 22-466, limits assumed); assay: cell-based or functional assay
T3 sequence (looked up): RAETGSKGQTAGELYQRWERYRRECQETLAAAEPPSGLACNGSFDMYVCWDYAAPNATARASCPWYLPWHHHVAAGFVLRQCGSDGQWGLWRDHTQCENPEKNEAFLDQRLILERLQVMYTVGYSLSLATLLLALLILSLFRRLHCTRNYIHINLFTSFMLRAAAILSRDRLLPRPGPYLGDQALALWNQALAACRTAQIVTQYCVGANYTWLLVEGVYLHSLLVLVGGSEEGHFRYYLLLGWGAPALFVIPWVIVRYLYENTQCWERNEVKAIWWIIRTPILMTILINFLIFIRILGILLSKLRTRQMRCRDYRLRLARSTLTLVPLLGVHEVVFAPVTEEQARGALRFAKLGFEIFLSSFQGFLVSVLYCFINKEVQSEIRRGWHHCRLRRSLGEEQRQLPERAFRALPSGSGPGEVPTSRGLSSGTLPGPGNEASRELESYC

GLP-1R [4] = target: GLP-1R (UniProt P43220 24-463, limits assumed); assay: cell-based or functional assay

T1 sequence (P43220 24-463, species assumed): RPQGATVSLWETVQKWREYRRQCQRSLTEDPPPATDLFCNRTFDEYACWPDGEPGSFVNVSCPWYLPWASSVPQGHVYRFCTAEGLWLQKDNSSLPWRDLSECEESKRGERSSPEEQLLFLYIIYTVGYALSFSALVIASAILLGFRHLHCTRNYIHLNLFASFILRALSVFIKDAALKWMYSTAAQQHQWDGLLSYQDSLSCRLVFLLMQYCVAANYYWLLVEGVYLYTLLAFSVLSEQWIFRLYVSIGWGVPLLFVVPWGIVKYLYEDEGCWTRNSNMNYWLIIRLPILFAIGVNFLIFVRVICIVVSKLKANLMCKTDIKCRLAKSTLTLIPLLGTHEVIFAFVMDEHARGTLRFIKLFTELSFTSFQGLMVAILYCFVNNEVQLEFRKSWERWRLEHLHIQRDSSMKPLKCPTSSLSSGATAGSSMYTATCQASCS

## CC[C@H](C)[C@H](NC(=O)[C@H](CC(C)C)NC(=O)[C@H](Cc1c[nH]c2ccccc12)NC(=O)[C@@H]1CCCCNC(=O)CN(C(=O)COCCOCCNC(=O)COCCOCCNC(=O)CC[C@H](NC(=O)CCCCCCCCCCCCCCCCCCC(=O)O)C(=O)O)CC(=O)NCCCC[C@H](NC(=O)[C@H](CCC(N)=O)NC(=O)[C@H](C)NC(=O)[C@@H](NC(=O)[C@H](CCCCN)NC(=O)[C@H](CC(=O)O)NC(=O)[C@H](CC(C)C)NC(=O)C(C)(C)NC(=O)[C@@H](NC(=O)[C@H](CO)NC(=O)[C@H](Cc2ccc(O)cc2)NC(=O)[C@H](CC(=O)O)NC(=O)[C@H](CO)NC(=O)[C@@H](NC(=O)[C@H](Cc2ccccc2)NC(=O)[C@@H](NC(=O)CNC(=O)[C@H](CCC(=O)O)NC(=O)C(C)(C)NC(=O)[C@@H](N)Cc2ccc(O)cc2)[C@@H](C)O)[C@@H](C)O)[C@@H](C)CC)[C@@H](C)CC)C(=O)N[C@@H](C)C(=O)N[C@@H](Cc2ccccc2)C(=O)N[C@@H](C(C)C)C(=O)N1)C(=O)N[C@@H](C)C(=O)NCC(=O)NCC(=O)N1CCC[C@H]1C(=O)N[C@@H](CO)C(=O)N[C@@H](CO)C(=O)NCC(=O)N[C@@H](C)C(=O)N1CCC[C@H]1C(=O)N1CCC[C@H]1C(=O)N1CCC[C@H]1C(=O)N[C@@H](CO)C(N)=O [WX-004]
GLP-1R [1]; with 1% HSA
  EC50: 84.3 nM
GLP-1R [1]; without 1% HSA
  EC50: 1.86 nM
GIPR [2]; with 1% HSA
  EC50: 21.4 nM
GIPR [2]; without 1% HSA
  EC50: 1.36 nM

## CC[C@H](C)[C@H](NC(=O)[C@H](CC(C)C)NC(=O)[C@H](Cc1c[nH]c2ccccc12)NC(=O)[C@H](CCC(N)=O)NC(=O)[C@@H](NC(=O)[C@H](Cc1ccccc1)NC(=O)[C@H](C)NC(=O)[C@@H]1CCCCNC(=O)CN(C(=O)COCCOCCNC(=O)COCCOCCNC(=O)CC[C@H](NC(=O)CCCCCCCCCCCCCCCCCCC(=O)O)C(=O)O)CC(=O)NCCCC[C@H](NC(=O)[C@H](CCCCN)NC(=O)[C@H](CC(=O)O)NC(=O)[C@H](CC(C)C)NC(=O)C(C)(C)NC(=O)[C@@H](NC(=O)[C@H](CO)NC(=O)[C@H](Cc2ccc(O)cc2)NC(=O)[C@H](CC(=O)O)NC(=O)[C@H](CO)NC(=O)[C@@H](NC(=O)[C@H](Cc2ccccc2)NC(=O)[C@@H](NC(=O)CNC(=O)[C@H](CCC(=O)O)NC(=O)C(C)(C)NC(=O)[C@@H](N)Cc2ccc(O)cc2)[C@@H](C)O)[C@@H](C)O)[C@@H](C)CC)C(=O)N[C@@H](C)C(=O)N[C@@H](CCC(N)=O)C(=O)N1)C(C)C)C(=O)N[C@@H](C)C(=O)NCC(=O)NCC(=O)N1CCC[C@H]1C(=O)N[C@@H](CO)C(=O)N[C@@H](CO)C(=O)NCC(=O)N[C@@H](C)C(=O)N1CCC[C@H]1C(=O)N1CCC[C@H]1C(=O)N1CCC[C@H]1C(=O)N[C@@H](CO)C(N)=O [WX-006]
GLP-1R [1]; without 1% HSA
  EC50: 0.027 nM
GIPR [2]; without 1% HSA
  EC50: 0.26 nM

## CC[C@H](C)[C@H](NC(=O)[C@H](CC(C)C)NC(=O)[C@H](Cc1c[nH]c2ccccc12)NC(=O)[C@H](CCC(=O)O)NC(=O)[C@@H](NC(=O)[C@H](Cc1ccccc1)NC(=O)[C@H](C)NC(=O)[C@@H]1CCCCNC(=O)CN(C(=O)COCCOCCNC(=O)COCCOCCNC(=O)CC[C@H](NC(=O)CC[C@H](NC(=O)CCCCCCCCCCCCCCCCCCC(=O)O)C(=O)O)C(=O)O)CC(=O)NCCCC[C@H](NC(=O)[C@H](CCCCN)NC(=O)[C@H](CC(=O)O)NC(=O)[C@H](CC(C)C)NC(=O)C(C)(C)NC(=O)[C@@H](NC(=O)[C@H](CO)NC(=O)[C@H](Cc2ccc(O)cc2)NC(=O)[C@H](CC(=O)O)NC(=O)[C@H](CO)NC(=O)[C@@H](NC(=O)[C@H](Cc2ccccc2)NC(=O)[C@@H](NC(=O)CNC(=O)[C@H](CCC(=O)O)NC(=O)C(C)(C)NC(=O)[C@@H](N)Cc2ccc(O)cc2)[C@@H](C)O)[C@@H](C)O)[C@@H](C)CC)C(=O)N[C@@H](C)C(=O)N[C@@H](CCC(N)=O)C(=O)N1)C(C)C)C(=O)N[C@@H](C)C(=O)NCC(=O)NCC(=O)N1CCC[C@H]1C(=O)N[C@@H](CO)C(=O)N[C@@H](CO)C(=O)NCC(=O)N[C@@H](C)C(=O)N1CCC[C@H]1C(=O)N1CCC[C@H]1C(=O)N1CCC[C@H]1C(=O)N[C@@H](CO)C(N)=O [WX-013]
GLP-1R [1]; without 1% HSA
  EC50: 0.057 nM
GIPR [2]; without 1% HSA
  EC50: 0.18 nM

## CC[C@H](C)[C@H](NC(=O)[C@H](CC(C)C)NC(=O)[C@H](Cc1c[nH]c2ccccc12)NC(=O)[C@@H]1CCCCNC(=O)CN(C(=O)COCCOCCNC(=O)COCCOCCNC(=O)CC[C@H](NC(=O)CCCCCCCCCCCCCCCCCCC(=O)O)C(=O)O)CC(=O)NCCCC[C@H](NC(=O)[C@H](CCC(N)=O)NC(=O)[C@H](C)NC(=O)[C@@H](NC(=O)[C@H](CCCCN)NC(=O)[C@H](CC(=O)O)NC(=O)[C@H](CC(C)C)NC(=O)C(C)(C)NC(=O)[C@@H](NC(=O)[C@H](CO)NC(=O)[C@H](Cc2ccc(O)cc2)NC(=O)[C@H](CC(=O)O)NC(=O)[C@H](CO)NC(=O)[C@@H](NC(=O)[C@H](Cc2ccccc2)NC(=O)[C@@H](NC(=O)CNC(=O)[C@H](CCC(=O)O)NC(=O)C(C)(C)NC(=O)[C@@H](N)Cc2ccc(O)cc2)[C@@H](C)O)[C@@H](C)O)[C@@H](C)CC)[C@@H](C)CC)C(=O)N[C@@H](C)C(=O)N[C@@H](Cc2ccccc2)C(=O)N[C@@H]([C@@H](C)CC)C(=O)N1)C(=O)N[C@@H](C)C(=O)NCC(=O)NCC(=O)N1CCC[C@H]1C(=O)N[C@@H](CO)C(=O)N[C@@H](CO)C(=O)NCC(=O)N[C@@H](C)C(=O)N1CCC[C@H]1C(=O)N1CCC[C@H]1C(=O)N1CCC[C@H]1C(=O)N[C@@H](CO)C(N)=O [WX-003]
GLP-1R [1]; with 1% HSA
  EC50: 14 nM
GLP-1R [1]; without 1% HSA
  EC50: 0.54 nM
GIPR [2]; without 1% HSA
  EC50: 1.07 nM

B1: polypeptide compound WX-001 (peptide)
peptide: YXEGTFTSDYSIXLDKIAQKAFIKWLIAGGPSSGAPPPS
modifications: Aib at positions 2 and 13; C-terminal amide (-NH2); side-chain amino groups of Lys 20 and Lys 24 bridged by iminodiacetic acid (from Fmoc-Ida-OH) whose nitrogen carries Intermediate A-1 (fatty acid side chain, structure only in a drawing)
GIPR [3]
  EC50 (nM), cAMP assay on GIPR CHO cells, (+) 1% HSA: 16 nM
  EC50 (nM), cAMP assay on GIPR CHO cells, (-) 1% HSA: 0.324 nM
  Ratio of EC50 (+) 1% HSA to (-) 1% HSA, cAMP assay: 49.3
GLP-1R [4]
  EC50 (nM), cAMP assay on GLP-1R HEK293 cells, (+) 1% HSA: 16.6 nM
  EC50 (nM), cAMP assay on GLP-1R HEK293 cells, (-) 1% HSA: 0.0596 nM
  Ratio of EC50 (+) 1% HSA to (-) 1% HSA, cAMP assay: 279
